Assays:
[1] = Test on the solubility in a simulated body fluid; assay type: physicochemical; conditions: 0.01 M PBS pH 7.4, 37° C.
Description: Test on the Solubility in a Simulated Body Fluid
The concentration of the drug dissolved in the PBS buffered solution was determined with an HPLC-a method.

[2] = Test on the solubility in media at different pH; assay type: physicochemical
Description: Test on the Solubility in Media at Different pH
About 200 mg of solid powders of Preparation Example 10 and Preparation Example 15 were added in a 500 mL phosphate buffered solution at different pH values (50 mmol/L, pH 5.5, pH 6.5, pH 7.4, and pH 8.0) respectively, placed into a dissolution tester, kept at a constant temperature of 37° C., and paddle stirred at 50 rpm for 72 hours. Appropriate amounts of the suspension were taken out at 15 min, 30 min, 45 min, 1 h, 2 h, 4 h, 6 h, 8 h, 24 h, 32 h, 48 h, and 72 h respectively, and centrifuged immediately (15000 rpm, 5 min). The supernatant was diluted with methanol by a factor of two. The concentration of the drug dissolved in the PB buffer solution was determined with an HPLC-b method.

[3] = phosphate buffer pH 5.5, 37° C., 0.25 h
[4] = phosphate buffer pH 5.5, 37° C., 0.5 h
[5] = phosphate buffer pH 5.5, 37° C., 0.75 h
[6] = phosphate buffer pH 5.5, 37° C., 1 h
[7] = phosphate buffer pH 5.5, 37° C., 2 h
[8] = phosphate buffer pH 5.5, 37° C., 4 h
[9] = phosphate buffer pH 5.5, 37° C., 6 h
[10] = phosphate buffer pH 5.5, 37° C., 8 h
[11] = phosphate buffer pH 5.5, 37° C., 24 h
[12] = phosphate buffer pH 5.5, 37° C., 32 h
[13] = phosphate buffer pH 5.5, 37° C., 48 h
[14] = phosphate buffer pH 5.5, 37° C., 72 h
[15] = phosphate buffer pH 6.5, 37° C., 0.25 h
[16] = phosphate buffer pH 6.5, 37° C., 0.5 h
[17] = phosphate buffer pH 6.5, 37° C., 0.75 h
[18] = phosphate buffer pH 6.5, 37° C., 1 h
[19] = phosphate buffer pH 6.5, 37° C., 2 h
[20] = phosphate buffer pH 6.5, 37° C., 4 h
[21] = phosphate buffer pH 6.5, 37° C., 6 h
[22] = phosphate buffer pH 6.5, 37° C., 8 h
[23] = phosphate buffer pH 6.5, 37° C., 24 h
[24] = phosphate buffer pH 6.5, 37° C., 32 h
[25] = phosphate buffer pH 6.5, 37° C., 48 h
[26] = phosphate buffer pH 6.5, 37° C., 72 h
[27] = phosphate buffer pH 7.4, 37° C., 0.25 h
[28] = phosphate buffer pH 7.4, 37° C., 0.5 h
[29] = phosphate buffer pH 7.4, 37° C., 0.75 h
[30] = phosphate buffer pH 7.4, 37° C., 1 h
[31] = phosphate buffer pH 7.4, 37° C., 2 h
[32] = phosphate buffer pH 7.4, 37° C., 4 h
[33] = phosphate buffer pH 7.4, 37° C., 6 h
[34] = phosphate buffer pH 7.4, 37° C., 8 h
[35] = phosphate buffer pH 7.4, 37° C., 24 h
[36] = phosphate buffer pH 7.4, 37° C., 32 h
[37] = phosphate buffer pH 7.4, 37° C., 48 h
[38] = phosphate buffer pH 7.4, 37° C., 72 h
[39] = phosphate buffer pH 8.0, 37° C., 0.25 h
[40] = phosphate buffer pH 8.0, 37° C., 0.5 h
[41] = phosphate buffer pH 8.0, 37° C., 0.75 h
[42] = phosphate buffer pH 8.0, 37° C., 1 h
[43] = phosphate buffer pH 8.0, 37° C., 2 h
[44] = phosphate buffer pH 8.0, 37° C., 4 h
[45] = phosphate buffer pH 8.0, 37° C., 6 h
[46] = phosphate buffer pH 8.0, 37° C., 8 h
[47] = phosphate buffer pH 8.0, 37° C., 24 h
[48] = phosphate buffer pH 8.0, 37° C., 32 h
[49] = phosphate buffer pH 8.0, 37° C., 48 h
[50] = phosphate buffer pH 8.0, 37° C., 72 h

Structure (SMILES): CCCCN1CCCCC1C(=O)Nc1c(C)cccc1C.O=C(O)c1cc2ccccc2c(Cc2c(O)c(C(=O)O)cc3ccccc23)c1O [Preparation Example 10, mono(bupivacaine) pamoate]
- Compound concentration: Bupivacaine ([1]; 5 min): 0.7220 mM
- Compound concentration: Pamoic acid ([1]; 5 min): 0.7427 mM
- Compound concentration: Bupivacaine ([1]; 15 min): 0.8330 mM
- Compound concentration: Pamoic acid ([1]; 15 min): 0.8579 mM
- Compound concentration: Bupivacaine ([1]; 30 min): 0.8859 mM
- Compound concentration: Pamoic acid ([1]; 30 min): 0.9168 mM
- Compound concentration: Bupivacaine ([1]; 1 h): 0.9387 mM
- Compound concentration: Pamoic acid ([1]; 1 h): 0.9816 mM
- Compound concentration: Bupivacaine ([1]; 2 h): 0.9097 mM
- Compound concentration: Pamoic acid ([1]; 2 h): 0.9957 mM
- Compound concentration: Bupivacaine ([1]; 6 h): 0.0833 mM
- Compound concentration: Pamoic acid ([1]; 6 h): 1.8673 mM
- Compound concentration: Bupivacaine ([1]; 24 h): 0.0670 mM
- Compound concentration: Pamoic acid ([1]; 24 h): 2.5605 mM
- molar ratio of the solubility (bupivacaine to pamoic acid) ([2]; media at pH 5.5, pH 7.4 and pH 8.0, remained for 48 hours or less): around 1.0
- time for which the molar ratio of the solubility remained around 1.0 ([2]; medium at pH 6.5, decreased after a longer time): 8 h
- Molar concentration of Bupivacaine [2, 3]: 0.047 mmol/L
- Molar concentration of Pamoic acid [2, 3]: 0.046 mmol/L
- Molar concentration of Bupivacaine [2, 4]: 0.078 mmol/L
- Molar concentration of Pamoic acid [2, 4]: 0.076 mmol/L
- Molar concentration of Bupivacaine [2, 5]: 0.106 mmol/L
- Molar concentration of Pamoic acid [2, 5]: 0.103 mmol/L
- Molar concentration of Bupivacaine [2, 6]: 0.136 mmol/L
- Molar concentration of Pamoic acid [2, 6]: 0.132 mmol/L
- Molar concentration of Bupivacaine [2, 7]: 0.188 mmol/L
- Molar concentration of Pamoic acid [2, 7]: 0.182 mmol/L
- Molar concentration of Bupivacaine [2, 8]: 0.222 mmol/L
- Molar concentration of Pamoic acid [2, 8]: 0.218 mmol/L
- Molar concentration of Bupivacaine [2, 9]: 0.234 mmol/L
- Molar concentration of Pamoic acid [2, 9]: 0.232 mmol/L
- Molar concentration of Bupivacaine [2, 10]: 0.234 mmol/L
- Molar concentration of Pamoic acid [2, 10]: 0.23 mmol/L
- Molar concentration of Bupivacaine [2, 11]: 0.246 mmol/L
- Molar concentration of Pamoic acid [2, 11]: 0.244 mmol/L
- Molar concentration of Bupivacaine [2, 12]: 0.248 mmol/L
- Molar concentration of Pamoic acid [2, 12]: 0.248 mmol/L
- Molar concentration of Bupivacaine [2, 13]: 0.198 mmol/L
- Molar concentration of Pamoic acid [2, 13]: 0.236 mmol/L
- Molar concentration of Bupivacaine [2, 14]: 0.142 mmol/L
- Molar concentration of Pamoic acid [2, 14]: 0.224 mmol/L
- Molar concentration of Bupivacaine [2, 15]: 0.05 mmol/L
- Molar concentration of Pamoic acid [2, 15]: 0.053 mmol/L
- Molar concentration of Bupivacaine [2, 16]: 0.084 mmol/L
- Molar concentration of Pamoic acid [2, 16]: 0.09 mmol/L
- Molar concentration of Bupivacaine [2, 17]: 0.115 mmol/L
- Molar concentration of Pamoic acid [2, 17]: 0.124 mmol/L
- Molar concentration of Bupivacaine [2, 18]: 0.148 mmol/L
- Molar concentration of Pamoic acid [2, 18]: 0.160 mmol/L
- Molar concentration of Bupivacaine [2, 19]: 0.274 mmol/L
- Molar concentration of Pamoic acid [2, 19]: 0.296 mmol/L
- Molar concentration of Bupivacaine [2, 20]: 0.384 mmol/L
- Molar concentration of Pamoic acid [2, 20]: 0.414 mmol/L
- Molar concentration of Bupivacaine [2, 21]: 0.396 mmol/L
- Molar concentration of Pamoic acid [2, 21]: 0.424 mmol/L
- Molar concentration of Bupivacaine [2, 22]: 0.404 mmol/L
- Molar concentration of Pamoic acid [2, 22]: 0.448 mmol/L
- Molar concentration of Bupivacaine [2, 23]: 0.186 mmol/L
- Molar concentration of Pamoic acid [2, 23]: 0.440 mmol/L
- Molar concentration of Bupivacaine [2, 24]: 0.15 mmol/L
- Molar concentration of Pamoic acid [2, 24]: 0.426 mmol/L
- Molar concentration of Bupivacaine [2, 25]: 0.14 mmol/L
- Molar concentration of Pamoic acid [2, 25]: 0.428 mmol/L
- Molar concentration of Bupivacaine [2, 26]: 0.128 mmol/L
- Molar concentration of Pamoic acid [2, 26]: 0.416 mmol/L
- Molar concentration of Bupivacaine [2, 27]: 0.0555 mmol/L
- Molar concentration of Pamoic acid [2, 27]: 0.0605 mmol/L
- Molar concentration of Bupivacaine [2, 28]: 0.095 mmol/L
- Molar concentration of Pamoic acid [2, 28]: 0.105 mmol/L
- Molar concentration of Bupivacaine [2, 29]: 0.1315 mmol/L
- Molar concentration of Pamoic acid [2, 29]: 0.1465 mmol/L
- Molar concentration of Bupivacaine [2, 30]: 0.170 mmol/L
- Molar concentration of Pamoic acid [2, 30]: 0.190 mmol/L
- Molar concentration of Bupivacaine [2, 31]: 0.288 mmol/L
- Molar concentration of Pamoic acid [2, 31]: 0.320 mmol/L
- Molar concentration of Bupivacaine [2, 32]: 0.386 mmol/L
- Molar concentration of Pamoic acid [2, 32]: 0.430 mmol/L
- Molar concentration of Bupivacaine [2, 33]: 0.428 mmol/L
- Molar concentration of Pamoic acid [2, 33]: 0.476 mmol/L
- Molar concentration of Bupivacaine [2, 34]: 0.440 mmol/L
- Molar concentration of Pamoic acid [2, 34]: 0.486 mmol/L
- Molar concentration of Bupivacaine [2, 35]: 0.426 mmol/L
- Molar concentration of Pamoic acid [2, 35]: 0.550 mmol/L
- Molar concentration of Bupivacaine [2, 36]: 0.402 mmol/L
- Molar concentration of Pamoic acid [2, 36]: 0.592 mmol/L
- Molar concentration of Bupivacaine [2, 37]: 0.204 mmol/L
- Molar concentration of Pamoic acid [2, 37]: 0.498 mmol/L
- Molar concentration of Bupivacaine [2, 38]: 0.166 mmol/L
- Molar concentration of Pamoic acid [2, 38]: 0.458 mmol/L
- Molar concentration of Bupivacaine [2, 39]: 0.0575 mmol/L
- Molar concentration of Pamoic acid [2, 39]: 0.063 mmol/L
- Molar concentration of Bupivacaine [2, 40]: 0.099 mmol/L
- Molar concentration of Pamoic acid [2, 40]: 0.110 mmol/L
- Molar concentration of Bupivacaine [2, 41]: 0.1375 mmol/L
- Molar concentration of Pamoic acid [2, 41]: 0.154 mmol/L
- Molar concentration of Bupivacaine [2, 42]: 0.178 mmol/L
- Molar concentration of Pamoic acid [2, 42]: 0.200 mmol/L
- Molar concentration of Bupivacaine [2, 43]: 0.308 mmol/L
- Molar concentration of Pamoic acid [2, 43]: 0.344 mmol/L
- Molar concentration of Bupivacaine [2, 44]: 0.416 mmol/L
- Molar concentration of Pamoic acid [2, 44]: 0.468 mmol/L
- Molar concentration of Bupivacaine [2, 45]: 0.494 mmol/L
- Molar concentration of Pamoic acid [2, 45]: 0.554 mmol/L
- Molar concentration of Bupivacaine [2, 46]: 0.558 mmol/L
- Molar concentration of Pamoic acid [2, 46]: 0.624 mmol/L
- Molar concentration of Bupivacaine [2, 47]: 0.610 mmol/L
- Molar concentration of Pamoic acid [2, 47]: 0.688 mmol/L
- Molar concentration of Bupivacaine [2, 48]: 0.622 mmol/L
- Molar concentration of Pamoic acid [2, 48]: 0.702 mmol/L
- Molar concentration of Bupivacaine [2, 49]: 0.592 mmol/L
- Molar concentration of Pamoic acid [2, 49]: 0.694 mmol/L
- Molar concentration of Bupivacaine [2, 50]: 0.44 mmol/L
- Molar concentration of Pamoic acid [2, 50]: 0.7 mmol/L

Source: US11084790B2, “Insoluble complex or solvate thereof, pharmaceutical composition and use thereof” (Fruithy Holdings Limited, priority 2017, dated 2021)
